According to US20050282743A1, “Molecular interactions in cells” (Arbor Vita Corporation, priority 2001, published 2005):
Read-outs that look alike come from different tables or passages of the source. Peptide text beside a SMILES is read from it. * marks the point of attachment. Biotin = O=C1N[C@H]2[C@H](CS[C@H]2CCCCC(=O)*)N1

Assays:
Format in all cases: binding
DLG1 (PDZ Domain 1, 2) = molecular target: T1, DLG1 (PDZ Domain 1, 2) (Homo sapiens, UniProt Q12959); test: G' assay, TABLE 12; conditions: A450 nm class of biotinylated PL peptide bound; 0 in conc columns = peptide 10 uM, protein 5 ug/ml
T1 construct: made in house; host or cells: E. coli (DH5alpha, BL21 or JM109)
T1 sequence (Q12959 213-413 limits assumed): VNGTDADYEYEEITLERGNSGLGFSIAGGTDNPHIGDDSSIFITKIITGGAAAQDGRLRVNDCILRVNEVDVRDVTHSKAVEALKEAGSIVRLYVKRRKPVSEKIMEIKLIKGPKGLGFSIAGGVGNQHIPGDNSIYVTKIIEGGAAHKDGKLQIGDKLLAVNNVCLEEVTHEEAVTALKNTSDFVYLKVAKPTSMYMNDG
Outline: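 PL peptide binding to PDZ domain protein, peptide at 10 uM; protein at 5 ug/ml unless another concentration is listed for Kd determination. Bound peptide read at A450 nm and binned into classes 0–5.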

[1] = molecular target: T2, PDZ-domain polypeptide (GST/PDZ fusion protein) (Homo sapiens, UniProt Q5TCQ9); test: Apparent affinity (Kd) by titration of PL peptide in the G assay
T2 construct: made in house; host or cells: E. coli (DH5alpha, BL21 or JM109)
T2 sequence (Q5TCQ9 1-1481): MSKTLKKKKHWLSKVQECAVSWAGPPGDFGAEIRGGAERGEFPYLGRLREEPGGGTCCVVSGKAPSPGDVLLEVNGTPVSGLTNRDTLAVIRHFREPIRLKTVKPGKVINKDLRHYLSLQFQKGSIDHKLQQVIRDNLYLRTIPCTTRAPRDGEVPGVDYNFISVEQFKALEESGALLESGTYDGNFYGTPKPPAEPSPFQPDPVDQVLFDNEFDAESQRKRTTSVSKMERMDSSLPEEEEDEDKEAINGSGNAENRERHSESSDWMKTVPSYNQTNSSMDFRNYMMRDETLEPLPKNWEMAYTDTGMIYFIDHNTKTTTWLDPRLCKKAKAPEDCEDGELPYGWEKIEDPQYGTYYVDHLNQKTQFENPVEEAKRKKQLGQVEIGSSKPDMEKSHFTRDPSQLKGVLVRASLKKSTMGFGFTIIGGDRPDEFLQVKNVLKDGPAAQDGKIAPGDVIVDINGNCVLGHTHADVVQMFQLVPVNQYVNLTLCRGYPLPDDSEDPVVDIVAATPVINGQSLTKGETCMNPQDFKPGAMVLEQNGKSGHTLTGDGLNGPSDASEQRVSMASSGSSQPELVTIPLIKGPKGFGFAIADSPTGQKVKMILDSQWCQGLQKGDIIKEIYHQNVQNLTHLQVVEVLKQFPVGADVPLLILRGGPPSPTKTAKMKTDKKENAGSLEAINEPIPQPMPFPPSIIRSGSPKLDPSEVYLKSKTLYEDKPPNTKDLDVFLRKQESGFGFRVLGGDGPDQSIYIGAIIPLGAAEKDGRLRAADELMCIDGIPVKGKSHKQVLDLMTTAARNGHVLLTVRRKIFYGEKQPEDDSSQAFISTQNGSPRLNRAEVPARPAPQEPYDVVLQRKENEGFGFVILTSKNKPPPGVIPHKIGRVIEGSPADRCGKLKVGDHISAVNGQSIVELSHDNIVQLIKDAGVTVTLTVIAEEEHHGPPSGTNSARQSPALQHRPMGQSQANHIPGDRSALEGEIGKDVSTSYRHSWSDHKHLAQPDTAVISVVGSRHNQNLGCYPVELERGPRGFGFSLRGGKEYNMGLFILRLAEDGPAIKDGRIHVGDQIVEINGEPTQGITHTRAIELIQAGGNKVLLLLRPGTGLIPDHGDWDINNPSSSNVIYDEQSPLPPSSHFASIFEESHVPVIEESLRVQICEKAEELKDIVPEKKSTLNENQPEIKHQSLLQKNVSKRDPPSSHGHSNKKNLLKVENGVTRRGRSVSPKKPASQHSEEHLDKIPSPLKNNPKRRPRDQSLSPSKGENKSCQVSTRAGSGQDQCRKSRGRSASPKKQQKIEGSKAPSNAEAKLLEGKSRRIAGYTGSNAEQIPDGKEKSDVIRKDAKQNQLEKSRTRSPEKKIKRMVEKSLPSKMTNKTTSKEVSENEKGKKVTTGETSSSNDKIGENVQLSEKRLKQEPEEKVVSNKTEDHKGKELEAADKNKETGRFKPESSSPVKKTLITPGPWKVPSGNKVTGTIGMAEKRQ
Outline: (§1)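 A fixed concentration of GST/PDZ fusion protein, 5 ug/ml by default, was mixed in solution with increasing labeled PL peptide (e.g. 0.1 uM-1 mM). Reaction times ranged from 10 minutes to 2 days at 4-37° C. Complexes were separated from free peptide and detected via the label as in the G assay, apparent affinity coming from the saturating concentration.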

[2] = molecular target: T3, PDZ-domain polypeptide (GST/PDZ fusion protein) (Homo sapiens, UniProt Q12923); test: as above; conditions: PDZ PTPL-1, PDZ Domain 2; Protein Optimal Conc 5; read-out: Peptide Optimal Conc (Kd by titration of the PL peptide)
T3 construct: made in house; host or cells: E. coli (DH5alpha, BL21 or JM109)
T3 sequence (Q12923 whole entry, the tested form may be a part): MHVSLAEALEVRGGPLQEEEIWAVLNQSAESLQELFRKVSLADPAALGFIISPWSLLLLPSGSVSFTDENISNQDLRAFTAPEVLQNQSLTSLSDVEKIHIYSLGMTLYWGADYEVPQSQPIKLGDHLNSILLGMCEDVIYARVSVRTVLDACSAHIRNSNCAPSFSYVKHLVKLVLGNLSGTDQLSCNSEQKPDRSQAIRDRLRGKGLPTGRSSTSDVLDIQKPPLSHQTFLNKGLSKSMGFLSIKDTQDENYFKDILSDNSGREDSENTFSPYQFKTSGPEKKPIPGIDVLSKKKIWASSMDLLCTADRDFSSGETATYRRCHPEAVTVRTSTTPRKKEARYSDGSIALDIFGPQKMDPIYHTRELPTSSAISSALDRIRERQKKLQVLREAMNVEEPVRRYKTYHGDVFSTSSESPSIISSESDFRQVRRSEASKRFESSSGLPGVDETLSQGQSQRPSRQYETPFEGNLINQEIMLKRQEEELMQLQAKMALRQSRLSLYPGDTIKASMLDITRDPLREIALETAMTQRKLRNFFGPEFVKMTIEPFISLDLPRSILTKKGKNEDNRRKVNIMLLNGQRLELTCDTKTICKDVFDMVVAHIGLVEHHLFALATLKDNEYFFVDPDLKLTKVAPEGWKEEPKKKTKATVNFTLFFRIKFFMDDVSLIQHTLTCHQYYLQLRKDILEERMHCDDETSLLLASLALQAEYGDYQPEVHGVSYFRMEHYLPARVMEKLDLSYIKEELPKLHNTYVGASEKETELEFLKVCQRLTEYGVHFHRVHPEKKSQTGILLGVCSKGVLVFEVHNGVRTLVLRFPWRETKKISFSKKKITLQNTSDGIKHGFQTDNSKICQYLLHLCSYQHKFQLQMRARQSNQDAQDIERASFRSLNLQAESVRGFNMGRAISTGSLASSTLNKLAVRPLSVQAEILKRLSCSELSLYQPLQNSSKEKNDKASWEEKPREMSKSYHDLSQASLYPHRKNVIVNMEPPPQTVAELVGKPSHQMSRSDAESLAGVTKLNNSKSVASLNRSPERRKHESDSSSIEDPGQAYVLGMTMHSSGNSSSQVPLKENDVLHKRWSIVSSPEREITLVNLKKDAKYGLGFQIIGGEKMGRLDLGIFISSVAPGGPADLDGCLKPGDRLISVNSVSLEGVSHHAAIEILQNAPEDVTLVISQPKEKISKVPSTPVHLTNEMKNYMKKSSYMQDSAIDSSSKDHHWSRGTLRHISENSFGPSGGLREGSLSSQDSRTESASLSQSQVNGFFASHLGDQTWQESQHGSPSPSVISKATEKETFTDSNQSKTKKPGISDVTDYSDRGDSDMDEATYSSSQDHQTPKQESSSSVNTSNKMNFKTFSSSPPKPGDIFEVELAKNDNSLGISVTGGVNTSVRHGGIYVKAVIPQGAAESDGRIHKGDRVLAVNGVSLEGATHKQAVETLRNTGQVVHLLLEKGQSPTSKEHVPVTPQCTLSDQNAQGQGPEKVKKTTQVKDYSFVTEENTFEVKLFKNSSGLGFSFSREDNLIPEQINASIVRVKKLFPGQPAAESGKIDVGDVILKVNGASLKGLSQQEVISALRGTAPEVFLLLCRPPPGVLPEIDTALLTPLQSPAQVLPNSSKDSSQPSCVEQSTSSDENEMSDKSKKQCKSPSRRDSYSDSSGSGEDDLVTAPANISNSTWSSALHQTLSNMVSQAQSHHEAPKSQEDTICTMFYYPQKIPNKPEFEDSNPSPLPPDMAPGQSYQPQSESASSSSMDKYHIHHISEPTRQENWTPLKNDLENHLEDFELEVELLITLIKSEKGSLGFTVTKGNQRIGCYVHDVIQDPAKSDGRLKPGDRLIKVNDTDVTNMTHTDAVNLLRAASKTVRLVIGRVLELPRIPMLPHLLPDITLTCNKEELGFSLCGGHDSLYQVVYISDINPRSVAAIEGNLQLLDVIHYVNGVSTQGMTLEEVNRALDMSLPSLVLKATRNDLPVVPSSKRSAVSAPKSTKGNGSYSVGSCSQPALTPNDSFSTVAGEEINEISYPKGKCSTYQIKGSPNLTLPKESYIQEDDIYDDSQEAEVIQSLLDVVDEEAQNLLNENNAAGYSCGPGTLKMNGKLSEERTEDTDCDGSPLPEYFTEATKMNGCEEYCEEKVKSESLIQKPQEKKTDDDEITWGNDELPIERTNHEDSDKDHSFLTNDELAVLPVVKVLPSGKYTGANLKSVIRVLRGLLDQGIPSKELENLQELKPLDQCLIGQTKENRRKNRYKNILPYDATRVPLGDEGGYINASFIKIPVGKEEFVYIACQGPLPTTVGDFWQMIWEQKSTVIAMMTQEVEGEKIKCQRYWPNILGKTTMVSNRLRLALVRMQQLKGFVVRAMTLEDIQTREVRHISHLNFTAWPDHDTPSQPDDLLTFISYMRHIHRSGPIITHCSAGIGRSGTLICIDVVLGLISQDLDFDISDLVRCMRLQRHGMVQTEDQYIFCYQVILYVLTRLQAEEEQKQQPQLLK
Outline: as §1

Compound	Classification (DLG1 (PDZ Domain 1, 2))	Kd ([1]; Peptide Optimal Conc (Kd by titration of the PL peptide), PDZ KIAA1634, PDZ Domain 1)	Kd [2]	Kd ([1]; PDZ KIAA1634, PDZ Domain 2, Protein Optimal Conc 5, read-out: Peptide Optimal Conc (Kd by titration of the PL peptide))	Kd ([1]; PDZ KIAA1634, PDZ Domain 4, Protein Optimal Conc 5, read-out: Peptide Optimal Conc (Kd by titration of the PL peptide))
CC[C@H](C)[C@H](NC(=O)[C@H](CCC(=O)O)NC(=O)[C@H](CC(N)=O)NC(=O)[C@H](CCCNC(=N)N)NC(=O)[C@H](Cc1ccccc1)NC(=O)[C@H](CC(N)=O)NC(=O)[C@H](CO)NC(=O)[C@H](CC(N)=O)NC(=O)[C@H](CCC(=O)O)NC(=O)[C@H](CO)NC(=O)[C@H](CC(=O)O)NC(=O)[C@H](CO)NC(=O)[C@@H](NC(=O)[C@@H](NC(=O)[C@H](CC(=O)O)NC(=O)[C@H](CCCCN)NC(=O)CCCC[C@@H]1SC[C@@H]2NC(=O)N[C@@H]21)[C@@H](C)CC)[C@@H](C)O)C(=O)N[C@@H](CCC(N)=O)C(=O)N[C@@H](CO)C(=O)N[C@@H](CC(C)C)C(=O)N[C@H](C(=O)O)C(C)C [CD95] (Biotin-KDITSDSENSNFRNEIQSLV-OH; C-terminus assumed)	2 (A450 nm 1-2)				
CC[C@H](C)[C@H](NC(=O)[C@H](CCC(N)=O)NC(=O)CCCC[C@@H]1SC[C@@H]2NC(=O)N[C@@H]21)C(=O)N[C@@H](CO)C(=O)N1CCC[C@H]1C(=O)NCC(=O)NCC(=O)N[C@@H](CC(C)C)C(=O)N[C@@H](CCC(=O)O)C(=O)N1CCC[C@H]1C(=O)N1CCC[C@H]1C(=O)N[C@@H](CO)C(=O)N[C@@H](CCC(=O)O)C(=O)N[C@@H](CCCCN)C(=O)N[C@@H](Cc1c[nH]cn1)C(=O)N[C@@H](Cc1ccccc1)C(=O)N[C@@H](CCCNC(=N)N)C(=O)N[C@@H](CCC(=O)O)C(=O)N[C@H](C(=O)N[C@@H](CCC(=O)O)C(=O)N[C@H](C(=O)O)C(C)C)[C@@H](C)O [Tax]	5 (A450 nm of 4 more than 2× repeated)				
CC[C@H](C)[C@H](NC(=O)[C@H](CC(=O)O)NC(=O)[C@H](CCC(=O)O)NC(=O)[C@H](CCCNC(=N)N)NC(=O)[C@@H](NC(=O)CCCC[C@@H]1SC[C@@H]2NC(=O)N[C@@H]21)[C@@H](C)O)C(=O)N[C@@H](Cc1ccc(O)cc1)C(=O)N[C@H](C(=O)N[C@@H](CC(N)=O)C(=O)N[C@@H](Cc1ccc(O)cc1)C(=O)N1CCC[C@H]1C(=O)N[C@H](C(=O)N[C@@H](Cc1ccccc1)C(=O)N[C@@H](CO)C(=O)N[C@@H](CCCNC(=N)N)C(=O)N[C@@H](CCCNC(=N)N)C(=O)N1CCC[C@H]1C(=O)N[C@@H](CCCCN)C(=O)N[C@H](C(=O)N[C@@H](CCCNC(=N)N)C(=O)N[C@H](C(=O)O)C(C)C)[C@@H](C)O)[C@@H](C)O)C(C)C [DNAM-1] (Biotin-TREDIYVNYPTFSRRPKTRV-OH; C-terminus assumed)	1 (A450 nm 0-1)	1 µM			
CC[C@H](C)[C@H](NC(=O)[C@H](CCCCN)NC(=O)[C@@H](NC(=O)[C@H](CO)NC(=O)[C@@H]1CCCN1C(=O)[C@H](Cc1ccccc1)NC(=O)[C@@H](NC(=O)[C@@H](NC(=O)[C@H](CCCNC(=N)N)NC(=O)[C@H](CCC(=O)O)NC(=O)[C@H](CC(C)C)NC(=O)[C@H](CC(C)C)NC(=O)[C@H](CC(C)C)NC(=O)[C@@H](NC(=O)CNC(=O)[C@@H](NC(=O)CCCC[C@@H]1SC[C@@H]2NC(=O)N[C@@H]21)C(C)C)[C@@H](C)O)C(C)C)[C@@H](C)CC)C(C)C)C(=O)N[C@@H](C)C(=O)N[C@H](C(=O)N[C@@H](CC(C)C)C(=O)N[C@H](C(=O)O)C(C)C)[C@@H](C)O [Adenovirus E4 Type9]			0.2 µM	0.15 µM	0.2 µM
